Assay results taken from patent EP0207913A1, “Catechol carboxamides, process for their preparation, intermediates and a pharmaceutical preparation” (priority 1985, dated 1987).
Where two headings read alike, the source gives them in different places.

Test system: apomorphine syndrome
Assay: In vivo test: apomorphine syndrome inhibition
Parameters: species or system Male Sprague-Dawley rats
Conditions: ip, rat, compound injected 60 min prior to apomorphine hydrochloride 1 mg/kg s.c.
Procedure: Male Sprague-Dawley rats (weighing 225-275 g) were used. […] The compounds were injected 60 min. prior to apomorphine hydrochloride (1 mg/kg) which was injected subcutaneously (s.c.) into the neck.
Directly after injection, the animals were placed in the cages, one in each cage. Scoring of the stereotypies were performed by two separate methods. The first scoring system was a modified version of the system introduced by Costall and Naylor (1973). The strength of the stereotype was scored on a 0-3 scale as follows:
In the second system the number of animals displaying hyperactivity caused by apomorphine were scored. Each group consisted of 6-8 animals. Saline controls were always run simultaneously. […] ED50's of the second scoring system are the doses which reduce the number of animals showing hyperactivity by 50 % over the observation period of ? min. The ED50 were calculated from log dose-response curves by the method of least squares from 4-6 dose levels with 6-8 animals per dose level.

[1] = dose reducing number of animals showing hyperactivity by 50 %, read-out: Reduction of hyperactivity ED50
[2] = dose reducing strength of stereotypies (0-3 scale) by 50 % over 60 min, read-out: Reduction of stereotypies ED50

SMILES | ED50 [1] | ED50 [2]
C=CCN1CCCC1CNC(=O)c1cc(Br)cc(OC)c1OC (centres unmarked) | 0.02 µmol/kg | 0.12 µmol/kg
CCN1CCCC1CNC(=O)c1cc(Br)cc(OC)c1OC (centres unmarked) | 0.0032 µmol/kg | 0.13 µmol/kg
CCN1CCCC1CNC(=O)c1c(O)c(Cl)cc(Cl)c1OC (centres unmarked) [a compound of EP 60235] | 0.11 µmol/kg | 2.4 µmol/kg
CCN1CCCC1CNC(=O)c1cc(Br)ccc1OC (centres unmarked) [ex 5 of US 3 342 (26)] | 2.5 µmol/kg | 6.5 µmol/kg
